This is an account of results in patent US20150157659A1, “METHOD OF INDUCING AUTOPHAGY AND ACTIVATING TOLL-LIKE RECEPTOR” (National Tsing Hua University, priority 2013, published 2015).

Data set [1] has as its system RAW 264.7 cells. Nature of the data set: Immunofluorescence microscopy for Beclin 1 and LC3. It counts as cell-based, mouse. Here is the method: The cells were fixed and permeabilized as described previously, followed by extensive washing and primary antibody staining (1:100 dilution) for 1 h at 4° C. in the dark. The primary antibody was specific for LC3 (4108, Cell Signaling Technology), Beclin 1 (ab55878, Abcam), TLR4 (14-9924, eBioscience), TLR9 (ab17236, abcam), MyD88 (ab2068, abcam), TRAF6 (ab33915, abcam), phosphorylated NF-κB (3033, Cell Signaling Technology) or IRF3 (sc-15991, Santa Cruz Biotechnology). After washing, the cells were incubated with the goat anti-mouse antibody conjugated with Alexa 488 (for TLR9, Invitrogen), goat anti-rabbit antibody conjugated with Alexa 488 (for LC3, MyD88, TRAF6 and NF-κB, Invitrogen) or donkey anti-goat IgG conjugated with Dylight 488 (for IRF3, Jackson ImmunoResearch) for 1 h at 4° C. in the dark. After washing, the cells were counterstained with 4,6-diamidino-2-phenylindole (DAPI, Vector Labs) and visualized with a confocal microscope (Nikon TE2000 equipped with the confocal upgrade laser kit). Fifty to one hundred cells in the images for LC3 were counted for quantification of LC3+ cells.
Beclin 1 and LC3 are two key proteins associated with the autophagy pathway and are common indicators of autophagy induction. […]

The test system of data set [2] is RAW 264.7 cells. Nature of the data set: Cell death and TUNEL apoptosis of treated macrophages. It counts as cell-based. To be noted: LPS 10 μg/ml.
The test system of another data set is RAW264.7. As to the kind of experiment: Cell morphology and vacuoles under phase contrast microscope after GO treatment. Format: cell-based, mouse. To be noted: LPS 10 μg/ml, 24 h. Here is the method:
The mouse macrophage cell line RAW264.7 was maintained in Dulbecco's modified Eagles medium (DMEM, Gibco) containing 10% fetal bovine serum (FBS, Gibco) and subcultured upon 70-80% confluency. For GO treatment, the cells were seeded to 6-well plates (3×10^5 cells/cm^2) overnight and cultured using the medium supplemented with GO at final concentrations of 5 or 100 μg/ml for 24 h. In parallel, the cells were treated with LPS (10 μg/ml, Sigma) for 24 h as the positive control. After the treatment, the cell morphology and vacuoles were observed under the phase contrast microscope.
To examine how GO nanosheets influenced the macrophage, RAW 264.7 cells were incubated with small GO at either 5 μg/ml (designated as GO5 group) or 100 μg/ml (designated as GO100 group) for 24 h.

The test system of data set [3] is RAW 264.7 cells. As to the kind of experiment: Transmission electron microscopy of autophagic vacuoles. Format: cell-based, mouse. Particulars: LPS 10 μg/ml. Here is the method:
The cells were harvested, centrifuged (215×g, 10 min), washed with cold PBS and fixed with 2.5% glutaraldehyde (in 0.2 M sodium cacodylate, pH 7.4). The samples were then fixed in 1% OsO4 for 1 h at 4° C., dehydrated with increasing concentrations of ethanol, embedded in spur resin and sectioned. The ultrathin sections were stained with uranyl acetate and observed under the TEM.

Data set [4] relates to RAW 264.7 cells. As to the kind of experiment: ELISA of cytokines in supernatant of treated macrophage cells. It counts as cell-based, mouse. Particulars: LPS. Here is the method: At 24 h post-treatment, the supernatant was collected from the GO-treated cell culture and analyzed using ELISA kits specific for mouse IL-2, IL-10, TNF-α, IFN-β and IFN-γ. The cells were lysed for Western blot using primary antibodies (1:1000 dilution) specific for LC3, Beclin 1 or β-actin (A-2066, Sigma) and the secondary antibody was HRP-conjugated IgG (1:5000 dilution, Amersham Biosciences). The images were developed using the GeneGnome HR scanner (Syngene).

As to `Cn1cnc(N)c2ncnc1-2` [3-MA, 3-methyl adenine], the “GO100-triggered formation of LC3+ aggregate dots” value in the data set with RAW 264.7 cells [1] (pre-treatment of cells with the autophagy inhibitor) is listed as “diminished the GO100-triggered formation of LC3+ aggregate dots”.
lipopolysaccharides [LPS]: in the data set on RAW 264.7 cells [2], the cell death result is listed as “also observed in the LPS-treated cells”. Besides, in the data set on RAW264.7, the “formation of vacuoles inside the cells” value was “also observed in the LPS-treated cells”. Moreover, in the data set on RAW 264.7 cells [1] (LPS-treated cells), the “Beclin 1 and LC3 dots by immunofluorescence” value was “also observed in the LPS-treated cells”. The “autophagic vacuoles (AV) by TEM” value in the data set with RAW 264.7 cells [3] is on record as “triggered more prominent AV”. In the data set on RAW 264.7 cells [4], the cytokine secretion result is listed as “cytokine secretion triggered by LPS”.
